Experimental data from PubChem BioAssay AID1963870 (Molecular Pharmacology Branch, DTP, NCI, 2024).

System: 292921-168-R-J2-PDC KRAS tumor spheroid viability
Test: Anticancer human tumor 292921-168-R-J2-PDC patient-derived pancreatic carcinoma cell line growth inhibition [KRAS2]
Conditions: spheroids with HUVEC and MSC; for viability, T/C: stronger effect = lower value
Method in brief: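 KRAS-mutant tumor cells were grown as spheroids with HUVEC endothelial cells and human MSCs as stroma. Targeted agents were tested alone and with KRAS pathway inhibitors. Doses started at or near clinical Cmax, or 10 microM, descending half-log.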

[1] = curve of first compound, second compound 0.1 µM
[2] = curve of first compound, second compound 0.316 µM
[3] = curve of first compound, second compound 1 µM
[4] = curve of first compound, second compound 3.16 µM
[5] = curve of first compound, second compound 10 µM
[6] = second compound 0.1 µM, first compound 0.000316 µM
[7] = second compound 0.1 µM, first compound 0.001 µM
[8] = second compound 0.1 µM, first compound 0.00316 µM
[9] = second compound 0.1 µM, first compound 0.01 µM
[10] = second compound 0.1 µM, first compound 0.0316 µM
[11] = second compound 0.1 µM, first compound 0.1 µM
[12] = second compound 0.316 µM, first compound 0.000316 µM
[13] = second compound 0.316 µM, first compound 0.001 µM
[14] = second compound 0.316 µM, first compound 0.00316 µM
[15] = second compound 0.316 µM, first compound 0.01 µM
[16] = second compound 0.316 µM, first compound 0.0316 µM
[17] = second compound 0.316 µM, first compound 0.1 µM
[18] = second compound 1 µM, first compound 0.000316 µM
[19] = second compound 1 µM, first compound 0.001 µM
[20] = second compound 1 µM, first compound 0.00316 µM
[21] = second compound 1 µM, first compound 0.01 µM
[22] = second compound 1 µM, first compound 0.0316 µM
[23] = second compound 1 µM, first compound 0.1 µM
[24] = second compound 3.16 µM, first compound 0.000316 µM
[25] = second compound 3.16 µM, first compound 0.001 µM
[26] = second compound 3.16 µM, first compound 0.00316 µM
[27] = second compound 3.16 µM, first compound 0.01 µM
[28] = second compound 3.16 µM, first compound 0.0316 µM
[29] = second compound 3.16 µM, first compound 0.1 µM
[30] = second compound 10 µM, first compound 0.000316 µM
[31] = second compound 10 µM, first compound 0.001 µM
[32] = second compound 10 µM, first compound 0.00316 µM
[33] = second compound 10 µM, first compound 0.01 µM
[34] = second compound 10 µM, first compound 0.0316 µM
[35] = second compound 10 µM, first compound 0.1 µM
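Also: drug exposure lasted seven days after spheroids formed for three days.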
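For viability, T/C in this document: percent of DMSO vehicle control viability which is 100%.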

CC(C)n1nc(-c2ccc3oc(N)nc3c2)c2c(N)ncnc21 + COc1cc2nc(C)nc(NC(C)c3cc(N)cc(C(F)(F)F)c3)c2cc1OC1CCOC1
IC50 [1]: 3.29 nM | IC50 [2]: 3.94 nM | IC50 [3]: 2.72 nM | IC50 [4]: 1.34 nM | IC50 [5]: < 0.316 nM | viability, T/C [6]: 35% | viability, T/C [7]: 74.8% | viability, T/C [8]: 46.2% | viability, T/C [9]: 38.8% | viability, T/C [10]: 28.1% | viability, T/C [11]: 26.2% | viability, T/C [12]: 88% | viability, T/C [13]: 73.2% | viability, T/C [14]: 53.6% | viability, T/C [15]: 35.7% | viability, T/C [16]: 29.4% | viability, T/C [17]: 24.1% | viability, T/C [18]: 81.1% | viability, T/C [19]: 68.9% | viability, T/C [20]: 47% | viability, T/C [21]: 30.5% | viability, T/C [22]: 23.7% | viability, T/C [23]: 21.2% | viability, T/C [24]: 64.9% | viability, T/C [25]: 54.2% | viability, T/C [26]: 37.8% | viability, T/C [27]: 26.3% | viability, T/C [28]: 23.8% | viability, T/C [29]: 20.6% | viability, T/C [30]: 32.7% | viability, T/C [31]: 26.4% | viability, T/C [32]: 24.3% | viability, T/C [33]: 17.7% | viability, T/C [34]: 16.7% | viability, T/C [35]: 15.5%

CN(C)C/C=C/C(=O)Nc1cc2c(Nc3ccc(F)c(Cl)c3)ncnc2cc1O[C@H]1CCOC1 + C=CC(=O)N1CCN(c2nc(=O)n(-c3c(C)ccnc3C(C)C)c3nc(-c4c(O)cccc4F)c(F)cc23)C(C)C1
IC50 [1]: > 100 nM | IC50 [2]: > 100 nM | IC50 [3]: > 100 nM | IC50 [4]: > 100 nM | IC50 [5]: < 0.316 nM | viability, T/C [6]: 119% | viability, T/C [7]: 110% | viability, T/C [8]: 94% | viability, T/C [9]: 86.2% | viability, T/C [10]: 95.3% | viability, T/C [11]: 76.5% | viability, T/C [12]: 118% | viability, T/C [13]: 114% | viability, T/C [14]: 104% | viability, T/C [15]: 104% | viability, T/C [16]: 96.4% | viability, T/C [17]: 89.4% | viability, T/C [18]: 117% | viability, T/C [19]: 107% | viability, T/C [20]: 106% | viability, T/C [21]: 90.7% | viability, T/C [22]: 101% | viability, T/C [23]: 87.2% | viability, T/C [24]: 71.7% | viability, T/C [25]: 67% | viability, T/C [26]: 66.6% | viability, T/C [27]: 71.9% | viability, T/C [28]: 68.4% | viability, T/C [29]: 53.5% | viability, T/C [30]: 29.3% | viability, T/C [31]: 24.5% | viability, T/C [32]: 22.8% | viability, T/C [33]: 23% | viability, T/C [34]: 20.9% | viability, T/C [35]: 19.2%

CCN1CCN(Cc2ccc(Nc3ncc(F)c(-c4cc(F)c5nc(C)n(C(C)C)c5c4)n3)nc2)CC1 + CNCc1ccccc1-c1csc(C(C)Nc2nc(C)nc3cc(OC)c(OC)cc23)c1
IC50 [1]: 19.8 nM | IC50 [2]: 16.1 nM | IC50 [3]: 4.44 nM | IC50 [4]: < 3.16 nM | IC50 [5]: < 3.16 nM | viability, T/C [8]: 76.5% | viability, T/C [9]: 60.9% | viability, T/C [10]: 42% | viability, T/C [11]: 30.9% | viability, T/C (second compound 0.1 µM, first compound 0.316 µM): 24.8% | viability, T/C (second compound 0.1 µM, first compound 1 µM): 19.1% | viability, T/C [14]: 73.2% | viability, T/C [15]: 57.4% | viability, T/C [16]: 37.1% | viability, T/C [17]: 31.8% | viability, T/C (second compound 0.316 µM, first compound 0.316 µM): 23.6% | viability, T/C (second compound 0.316 µM, first compound 1 µM): 12.3% | viability, T/C [20]: 54.3% | viability, T/C [21]: 42.6% | viability, T/C [22]: 28.6% | viability, T/C [23]: 22.3% | viability, T/C (second compound 1 µM, first compound 0.316 µM): 21.3% | viability, T/C (second compound 1 µM, first compound 1 µM): 0.5% | viability, T/C [26]: 0.12% | viability, T/C [27]: 0.07% | viability, T/C [28]: 0.04% | viability, T/C [29]: 0.05% | viability, T/C (second compound 3.16 µM, first compound 0.316 µM): 0.1% | viability, T/C (second compound 3.16 µM, first compound 1 µM): 0.1% | viability, T/C [32]: 0.11% | viability, T/C [33]: 0.11% | viability, T/C [34]: 0.08% | viability, T/C [35]: 0.08% | viability, T/C (second compound 10 µM, first compound 0.316 µM): 0.08% | viability, T/C (second compound 10 µM, first compound 1 µM): 0.13%

CN(C)C/C=C/C(=O)Nc1cc2c(Nc3ccc(F)c(Cl)c3)ncnc2cc1O[C@H]1CCOC1 + COc1cc2nc(C)nc(NC(C)c3cc(N)cc(C(F)(F)F)c3)c2cc1OC1CCOC1
IC50 [1]: > 100 nM | IC50 [2]: > 100 nM | IC50 [3]: > 100 nM | IC50 [4]: 30.4 nM | IC50 [5]: 1.18 nM | viability, T/C [6]: 94% | viability, T/C [7]: 91.5% | viability, T/C [8]: 84.8% | viability, T/C [9]: 88.7% | viability, T/C [10]: 85.4% | viability, T/C [11]: 74.5% | viability, T/C [12]: 87.5% | viability, T/C [13]: 74.7% | viability, T/C [14]: 72.7% | viability, T/C [15]: 73.5% | viability, T/C [16]: 66.1% | viability, T/C [17]: 58.1% | viability, T/C [18]: 87% | viability, T/C [19]: 82.2% | viability, T/C [20]: 83.7% | viability, T/C [21]: 86.8% | viability, T/C [22]: 84.9% | viability, T/C [23]: 75.2% | viability, T/C [24]: 62.8% | viability, T/C [25]: 46.8% | viability, T/C [26]: 57% | viability, T/C [27]: 54.9% | viability, T/C [28]: 52.5% | viability, T/C [29]: 44.5% | viability, T/C [30]: 50% | viability, T/C [31]: 52.2% | viability, T/C [32]: 50.7% | viability, T/C [33]: 45.5% | viability, T/C [34]: 45.6% | viability, T/C [35]: 47.8%

C=CC(=O)N1CCN(c2nc(OCC3CCCN3C)nc3c2CCN(c2cccc4cccc(C)c24)C3)CC1CC#N (configuration not stated)
IC50 (compound alone, run of 08/26/2021): 821 nM [middle of 5 runs] | IC50 (compound alone, run of 09/02/2021): 647 nM [middle of 5 runs]
